Experiments:
CDK2/CycE = molecular target: T1, CDK2/CycE (Homo sapiens, UniProt P24941); assay: CDK2/CycE kinase assay (TR-FRET, 2 mM ATP); format: biochemical; conditions: 2 mM ATP (high ATP); median; read-out: CDK2/CyclinE, 2 mM ATP (high ATP), IC50 (median)
T1 construct: purchased ProQinase GmbH (Freiburg, Germany); host or cells: insect cells (Sf9)
Summary of the method: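 Biotin-peptide phosphorylation (0.75 µM substrate, 2 mM ATP final, 25 min, 22 °C) by Sf9-expressed GST-CDK2/GST-CycE, after a 15-min compound pre-binding step. Inhibition scaled between enzyme-free (100%) and uninhibited (0%) wells.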

[1] = system: MDA-MB-231, human breast cancer cells; assay: Proliferation assay MDA-MB-231 (crystal violet, 4 days); format: cell-based; conditions: Homo sapiens, MDA-MB-231, 96 h, MDA-MB-231 cells, median, read-out: Prolif-MDA MB-231, IC50-[mol/l] (median)
Summary of the method: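 IC50 from a 4-parameter fit of crystal violet absorbance (595 nm), scaled between a day-0 plate (0%) and untreated wells (100%). Cells grown in 10% FCS medium were exposed to test substances at 0.01-10 µmol/L for 4 days, 0.1% DMSO final.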

Structure (SMILES)	IC50 (CDK2/CycE) [nM]	IC50 [1] [nM]
Cc1cc2nc(CNc3nc(N(C)CC(C)(C)O)nc4c(Br)cnn34)[nH]c2cc1C [Example 343, 1-[(8-bromo-4-{[(5,6-dimethyl-1H-benzimidazol-2-yl)methyl]amino}pyrazolo[1,5-a][1,3,5]triazin-2-yl)(methyl)amino]-2-methylpropan-2-ol]	1190	2.84
CN1CCCN(c2nc(NCc3nc4ccccc4[nH]3)n3ncc(Br)c3n2)CC1 [Example 390, N-[(1H-benzimidazol-2-yl)methyl]-8-bromo-2-(4-methyl-1,4-diazepan-1-yl)pyrazolo[1,5-a][1,3,5]triazin-4-amine]	> 20000	176
Brc1cnn2c(NCc3nc4ccccc4[nH]3)nc(N3CC4CCC(C3)O4)nc12 [Example 351, N-[(1H-benzimidazol-2-yl)methyl]-8-bromo-2-(8-oxa-3-azabicyclo[3.2.1]octan-3-yl)pyrazolo[1,5-a][1,3,5]triazin-4-amine]	7390	93.9
Cc1cc2nc(CNc3nc(N4CC5CCC(C4)N5)nc4c(Br)cnn34)[nH]c2cc1C [Example 353, 8-bromo-2-(3,8-diazabicyclo[3.2.1]octan-3-yl)-N-[(5,6-dimethyl-1H-benzimidazol-2-yl)methyl]pyrazolo[1,5-a][1,3,5]triazin-4-amine]	2860	1.81
Fc1cccc2[nH]c(CNc3nc(N4CCOCC4)nc4c(Cl)cnn34)nc12 [Example 361, 8-chloro-N-[(4-fluoro-1H-benzimidazol-2-yl)methyl]-2-(morpholin-4-yl)pyrazolo[1,5-a][1,3,5]triazin-4-amine]	4340	23.2
CN(CC(C)(C)O)c1nc(NCc2nc3cc(C(F)(F)F)ccc3[nH]2)n2ncc(C3CC3)c2n1 [Example 323, 1-{[8-cyclopropyl-4-({[5-(trifluoromethyl)-1H-benzimidazol-2-yl]methyl}amino)pyrazolo[1,5-a][1,3,5]triazin-2-yl](methyl)amino}-2-methylpropan-2-ol]	13500	8.76
Brc1cnn2c(NCc3nc4ccccc4[nH]3)nc(N3CCN4CCC3CC4)nc12 [Example 349, N-[(1H-benzimidazol-2-yl)methyl]-8-bromo-2-(1,4-diazabicyclo[3.2.2]nonan-4-yl)pyrazolo[1,5-a][1,3,5]triazin-4-amine]	1820	12.9
FC(F)(F)Oc1cccc2[nH]c(CNc3nc(N4C[C@H]5CC[C@@H](C4)N5)nc4c(Br)cnn34)nc12 [Example 381, 8-bromo-2-[(1R,5S)-3,8-diazabicyclo[3.2.1]octan-3-yl]-N-{[4-(trifluoromethoxy)-1H-benzimidazol-2-yl]methyl}pyrazolo[1,5-a][1,3,5]triazin-4-amine]	> 20000	43.5
CN1CCN(c2nc(NCc3nc4c(F)c(Cl)ccc4[nH]3)n3ncc(Br)c3n2)CC1 [Example 373, 8-bromo-N-[(5-chloro-4-fluoro-1H-benzimidazol-2-yl)methyl]-2-(4-methylpiperazin-1-yl)pyrazolo[1,5-a][1,3,5]triazin-4-amine]	7500	3.33
CN(CC(C)(C)O)c1nc(NCc2nc3c(F)cccc3[nH]2)n2ncc(Cl)c2n1 [Example 366, 1-[(8-chloro-4-{[(4-fluoro-1H-benzimidazol-2-yl)methyl]amino}pyrazolo[1,5-a][1,3,5]triazin-2-yl)(methyl)amino]-2-methylpropan-2-ol]	5570	57.1
CN(CC(C)(C)O)c1nc(NCc2nc3cc(F)c(F)cc3[nH]2)n2ncc(C3CC3)c2n1 [Example 319, 1-[(8-cyclopropyl-4-{[(5,6-difluoro-1H-benzimidazol-2-yl)methyl]amino}pyrazolo[1,5-a][1,3,5]triazin-2-yl)(methyl)amino]-2-methylpropan-2-ol]	12100	4.76
Fc1cc(F)cc(-c2nnc(CNc3nc(N4CCOCC4)nc4c(C(F)(F)F)cnn34)[nH]2)c1 [Example 386, N-{[5-(3,5-difluorophenyl)-4H-1,2,4-triazol-3-yl]methyl}-2-(morpholin-4-yl)-8-(trifluoromethyl)pyrazolo[1,5-a][1,3,5]triazin-4-amine]	1450	20.2
CN1CCN(c2nc(NCc3nc4cc(C(F)(F)F)ccc4[nH]3)n3ncc(Br)c3n2)CC1 [Example 344, 8-bromo-2-(4-methylpiperazin-1-yl)-N-{[5-(trifluoromethyl)-1H-benzimidazol-2-yl]methyl}pyrazolo[1,5-a][1,3,5]triazin-4-amine]	12400	4.82
CN1CCN(c2nc(NCc3nc4cc(Cl)c(Cl)cc4[nH]3)n3ncc(Br)c3n2)CC1 [Example 330, 8-bromo-N-[(5,6-dichloro-1H-benzimidazol-2-yl)methyl]-2-(4-methylpiperazin-1-yl)pyrazolo[1,5-a][1,3,5]triazin-4-amine]	13800	3.38
CN1CCN(c2nc(NCc3nc4c(F)c(F)ccc4[nH]3)n3ncc(Cl)c3n2)CC1 [Example 358, 8-chloro-N-[(4,5-difluoro-1H-benzimidazol-2-yl)methyl]-2-(4-methylpiperazin-1-yl)pyrazolo[1,5-a][1,3,5]triazin-4-amine]	> 20000	14.8
CN(c1nc(NCc2nc3ccccc3[nH]2)n2ncc(Br)c2n1)[C@H]1C[C@@H](O)C1 [Example 364, cis-3-[(4-{[(1H-benzimidazol-2-yl)methyl]amino}-8-bromopyrazolo[1,5-a][1,3,5]triazin-2-yl)(methyl)amino]cyclobutan-1-ol]	2070	41.3
CCNc1nc(NCc2nc(-c3ccc(C)cc3)c[nH]2)n2ncc(Br)c2n1 [Example 26, 8-bromo-N^2-ethyl-N^4-{[4-(4-methylphenyl)-1H-imidazol-2-yl]methyl}pyrazolo[1,5-a][1,3,5]triazine-2,4-diamine]	2070	
CC(C)c1cnn2c(NCc3ncc(-c4ccccc4)[nH]3)nc(N3CCN(C)CC3)nc12 [Example 31, 2-(4-methylpiperazin-1-yl)-N-[(5-phenyl-1H-imidazol-2-yl)methyl]-8-(propan-2-yl)pyrazolo[1,5-a][1,3,5]triazin-4-amine]	17500	49.8
Cc1ccnc2[nH]c(CNc3nc(N4CCN(C)CC4)nc4c(C(C)C)cnn34)nc12 [Example 32, N-[(7-methyl-3H-imidazo[4,5-b]pyridin-2-yl)methyl]-2-(4-methylpiperazin-1-yl)-8-(propan-2-yl)pyrazolo[1,5-a][1,3,5]triazin-4-amine]	15600	
CC(C)c1cnn2c(NCc3ncc(-c4ccccc4)[nH]3)nc(N3CCOCC3)nc12 [Example 30, 2-(morpholin-4-yl)-N-[(5-phenyl-1H-imidazol-2-yl)methyl]-8-(propan-2-yl)pyrazolo[1,5-a][1,3,5]triazin-4-amine]	7280	
FC(F)(F)c1ccc2[nH]c(CNc3nc(N4CC5CCC(C4)N5)nc4c(Br)cnn34)nc2c1 [Example 354, 8-bromo-2-(3,8-diazabicyclo[3.2.1]octan-3-yl)-N-{[5-(trifluoromethyl)-1H-benzimidazol-2-yl]methyl}pyrazolo[1,5-a][1,3,5]triazin-4-amine]		3.05
Cc1[nH]c(CNc2nc(N3CCOCC3)nc3c(Br)cnn23)nc1-c1ccccc1 [Example 27, 8-bromo-N-[(5-methyl-4-phenyl-1H-imidazol-2-yl)methyl]-2-(morpholin-4-yl)pyrazolo[1,5-a][1,3,5]triazin-4-amine]	17100	
